Literature values as cited in patent US7718658B2 (priority 2004, dated 2010).

Tested on: neuropathic pain
Details: in vivo

Compound: NCC1(CC(=O)O)CCCCC1 [Gabapentin]
- share of patients in whom it works: 60%
